Where “and” joins values, the source holds several entries; their conditions need not be identical. Equal entries are not always repeated. Where two headings read alike, the source gives them in different places.
Tests used:
[1] = molecular target: T1, ELIC D113N (Dickeya chrysanthemi, UniProt P0C7B7, D113N/INS163G); experiment: Two-electrode voltage clamp, ELIC D113N in oocytes; assay type: cell-based, Erwinia chrysanthemi
T1 construct: expressed in transfected cells; host or cells: X. laevis oocytes
Method: (§1) Constructs containing the gene of either the WT or mutant channels preceded by the signal sequence of the chicken α7nAchR were cloned into the pTLN vector for expression in X. laevis oocytes. After linearization of the plasmid DNA by MluI, capped complementary RNA was transcribed with the mMessage mMachine kit (Ambion) and purified with the RNeasy kit (Qiagen). For expression, 1–50 ng of RNA was injected into defolliculated oocytes. Two-electrode voltage clamp measurements were performed 1 d after injection at 20°C (OC-725B, Warner Instrument Corp.). Currents were recorded in bath solutions containing 10 mM HEPES (pH 7), 130 mM NaCl, and the indicated concentrations of cysteamine and divalent cations. In case of solutions containing Zn^2+, cysteamine was replaced by propylamine. The membrane potential in all dose–response measurements was set to −40 mV. As ELIC is permeable to divalent cations, we tested if endogenous calcium-activated chloride channels affected our measurements. To chelate intracellular calcium ions, the oocytes were incubated for 15 to 30 min in bath solutions lacking divalent ions but containing 10 µM BAPTA-AM.

[2] = molecular target: T2, ELIC R91A (Dickeya chrysanthemi, UniProt P0C7B7, INS163G/R91A); experiment: Two-electrode voltage clamp, ELIC R91A in oocytes; assay type: cell-based, Erwinia chrysanthemi; conditions: R91A
T2 construct: expressed in transfected cells; host or cells: X. laevis oocytes
Method: as §1

[3] = molecular target: T3, ELIC (Dickeya chrysanthemi, UniProt P0C7B7, INS163G); conditions: high Ca^2+ concentration; cited from earlier work
T3 construct: expressed in transfected cells; host or cells: HEK 293 cells (ATCC CRL-1573), pcDNA3

[4] = molecular target: T4, ELIC D158N (Dickeya chrysanthemi, UniProt P0C7B7, D158N/INS163G); experiment: Two-electrode voltage clamp, ELIC D158N in oocytes; assay type: cell-based, Erwinia chrysanthemi
T4 construct: expressed in transfected cells; host or cells: X. laevis oocytes
Method: as §1

[5] = molecular target: T5, ELIC D158A (Dickeya chrysanthemi, UniProt P0C7B7, D158A/INS163G); experiment: Two-electrode voltage clamp, ELIC D158A in oocytes; assay type: cell-based, Erwinia chrysanthemi
T5 construct: expressed in transfected cells; host or cells: X. laevis oocytes
Method: as §1

[6] = molecular target: T6, ELIC D113A (Dickeya chrysanthemi, UniProt P0C7B7, D113A/INS163G); experiment: Two-electrode voltage clamp, ELIC D113A in oocytes; assay type: cell-based, Erwinia chrysanthemi
T6 construct: expressed in transfected cells; host or cells: X. laevis oocytes
Method: as §1

[7] = molecular target: T7, ELIC E150Q (Dickeya chrysanthemi, UniProt P0C7B7, E150Q/INS163G); experiment: Two-electrode voltage clamp, ELIC E150Q in oocytes; assay type: cell-based, Erwinia chrysanthemi
T7 construct: expressed in transfected cells; host or cells: X. laevis oocytes
Method: as §1

[8] = molecular target: T8, ELIC N251A (Dickeya chrysanthemi, UniProt P0C7B7, N250A); experiment: Two-electrode voltage clamp, ELIC N251A in oocytes; assay type: cell-based, Erwinia chrysanthemi
T8 construct: expressed in transfected cells; host or cells: X. laevis oocytes
Method: as §1

[9] = molecular target: T9, ELIC D86A (Dickeya chrysanthemi, UniProt P0C7B7, D86A/INS163G); experiment: Two-electrode voltage clamp, ELIC D86A in oocytes; assay type: cell-based, Erwinia chrysanthemi
T9 construct: expressed in transfected cells; host or cells: X. laevis oocytes
Method: as §1

[10] = molecular target: T10, ELIC S84A (Dickeya chrysanthemi, UniProt P0C7B7, INS163G/S84A); experiment: Two-electrode voltage clamp, ELIC S84A in oocytes; assay type: cell-based, Erwinia chrysanthemi; conditions: S84A
T10 construct: expressed in transfected cells; host or cells: X. laevis oocytes
Method: as §1

[11] = molecular target: T11, ELIC WT (Dickeya chrysanthemi, UniProt P0C7B7, INS163G); experiment: cell-based; assay type: cell-based, Erwinia chrysanthemi; conditions: for Ki: Schild analysis, read-out: Ki app; for Slope: Schild plot slope
T11 construct: expressed in transfected cells; host or cells: X. laevis oocytes (cRNA injection, pTLN vector)
Method: as §1

[12] = molecular target: T12, ELIC D113A/D158A (Dickeya chrysanthemi, UniProt P0C7B7, D113A/D158A/INS163G); experiment: cell-based; assay type: cell-based, Erwinia chrysanthemi; conditions: D113A/D158A; agonist cysteamine
T12 construct: expressed in transfected cells; host or cells: X. laevis oocytes
Method: as §1

[13] = molecular target: T13, ELIC E150A (Dickeya chrysanthemi, UniProt P0C7B7, E150A/INS163G); experiment: Two-electrode voltage clamp, ELIC E150A in oocytes; assay type: cell-based, Erwinia chrysanthemi
T13 construct: expressed in transfected cells; host or cells: X. laevis oocytes
Method: as §1

[14] = Schild analysis, read-out: Ki app

With `[Ca+2]` [Ca^2+, calcium] the Ki [1, 14] was 950 µM, the Slope ([1]; Schild plot slope) was 1.0±0.01 and the pA ([1]; agonist cysteamine) was −0.02±0.08. The Ki [2, 14] was 210 µM, the Slope ([2]; Schild plot slope) was 0.7±0.1 and the pA ([2]; agonist cysteamine) was −0.69±0.03. For the same compound, the “maximum decrease of single channel currents” value [3] was “about 50%”, the Ki [4, 14] was 3200 µM and the Slope ([4]; Schild plot slope) was 0.5±0.2. For the same compound, the pA ([4]; agonist cysteamine) was 0.50±0.17, the Ki [5, 14] was 5400 µM and the Slope ([5]; Schild plot slope) was 1.2±0.1. The pA ([5]; agonist cysteamine) was 0.74±0.01, the Ki [6, 14] was 4900 µM and the Slope ([6]; Schild plot slope) was 1.0±0.3. It also gave a pA ([6]; agonist cysteamine) of 0.69±0.04, a Ki [7, 14] of 1200 µM and a Slope ([7]; Schild plot slope) of 0.9±0.3. The pA ([7]; agonist cysteamine) was 0.09±0.20, the Ki [8, 14] was 530 µM and the Slope ([8]; Schild plot slope) was 0.9±0.2. The pA ([8]; agonist cysteamine) was −0.27±0.19, the Ki [9, 14] was 250 µM and the Slope ([9]; Schild plot slope) was 0.8±0.1. For the same compound, the pA ([9]; agonist cysteamine) was −0.60±0.11, the Ki [10, 14] was 150 µM and the Slope ([10]; Schild plot slope) was 0.6±0.2. For the same compound, the pA ([10]; agonist cysteamine) was −0.83±0.14, the “reduction of maximum agonist response” value ([11]; 5 mM Ca^2+, saturating cysteamine, −40 mV) was 55% and the pA ([11]; WT/1 mM ACh present, agonist cysteamine) was −0.65±0.01. For the same compound, the Ki ([11]; WT/1 mM ACh) was 220 µM, the Slope ([11]; WT/1 mM ACh) was 0.9±0.02 and the pA ([11]; WT/BAPTA (BAPTA-AM-treated oocytes), agonist cysteamine) was −0.69±0.11. For the same compound, the Ki ([11]; WT/BAPTA) was 200 µM, the Slope ([11]; WT/BAPTA) was 1.0±0.3 and the Ki ([11]; WT, agonist cysteamine) was 260 µM. For the same compound, the Slope ([11]; WT, agonist cysteamine) was 0.8 and 0.8±0.05, the pA ([11]; WT, Schild plot x-intercept (log of mM), agonist cysteamine, −40 mV) was −0.57±0.03 and the IC50 ([11]; WT, maximum cysteamine response, read-out: IC50 of decline of maximum current response (Langmuir equation)) was 6000 µM. For the same compound, the “decrease in the agonist maximum response” value ([11]; at 6 mM calcium, channel block subtracted) was “about 50%”, the “effects on the agonist dose-response curves in the double mutant” value [12] was “virtually abolishes” and the Ki [13, 14] was 1700 µM. It also gave a Slope ([13]; Schild plot slope) of 1.0±0.2 and a pA ([13]; agonist cysteamine) of 0.23±0.12.
